{"source": "patent US20220000871A1", "about": "“METHODS AND COMPOSITIONS FOR TREATING NEURODEGENERATIVE DISEASES USING MODULATORS OF PHOSPHOGLYCERATE KINASE 1 (PGK1) ACTIVITY” (UNIVERSITY OF IOWA RESEARCH FOUNDATION, priority 2019, published 2022)", "test_system": "6-OHDA-treated rats", "experiment": "Unilateral 6-OHDA lesion in rats", "assay_type": "in vivo, rat", "method": "FIG. 3. TZ slows neurodegeneration, increases dopamine, and improves motor performance in 6-OHDA-treated rats. A) Schematic for experiments in panels B-G. 6-OHDA (20 μg) was injected into right striatum of rats on day 0. TZ (70 μg/kg) or saline were injected (i.p.) daily for 2 weeks, beginning 2, 3, 4, or 5 weeks after 6-OHDA injection. Assays were at 0 and 2-7 weeks. B) Percentage of SNc cells that were TUNEL-positive. N=6. C) Quantification of TH protein assessed by immunoblot in the striatum normalized to control. N=6. D,E) Percentage of SNc cells positive for TH immunostaining (D) and intensity of TH immunostaining in striatum (E) 7 weeks after 6-OHDA injection; TZ treatment was weeks 5-7. N=6. F) Dopamine content in right striatum relative to left (control) striatum. N=6. G) Results of cylinder test. 6-OHDA was injected into right striatum impairing use of left paw. Assay was 7 weeks after 6-OHDA injection; TZ treatment was week 5-7. N=4 for control group and 10 for the two 6-OHDA groups. In panels C, D, E, and data points are from individual rats. Bars and whiskers indicate mean±SEM. Blue indicates controls and red indicates TZ treatment. In the figures, *p<0.05, **p<0.01, ***p<0.001. For panels B and F, statistical test was Mann-Whitney, for panels C, D, and E, a Kruskal-Wallis with Dwass-Steele-Critchlow-Fligner, and for panel a Friedman with Dunn's.\nFIG. 13. TZ attenuates neurodegeneration, increases TH and dopamine, and improves motor function when administered after the onset of deterioration. A) Schematic for experiments in panels B-H. 6-OHDA (20 μg) was injected into right striatum of rats on day 0. TZ (70 μg/kg) or saline were injected (i.p.) daily for 2 weeks, beginning 2, 3, 4, or 5 weeks after 6-OHDA injection. Assays were at 0 and 2-7 weeks. B) Example of TUNEL staining in the SNc of rat brain. Samples were obtained at 5 weeks in sham-treated animals, 5 weeks in animals that received 6-OHDA, and at 7 weeks in animals that received vehicle or TZ from week 5 to 7. TUNEL (red) and DAPI (nuclei, blue). Scale bar, 5 μm. […] F) Nissl staining of neurons in the striatum region. Samples were obtained 2 weeks after 6-OHDA injection. Right panels show the quantification. […] Scale bar, 50 μm. Right panels show the quantification. N=3 per group. G,H) Measurement of DOPAC (G) and HVA (H) in right striatum relative to left (control) striatum. N=6.\nFor the 6-OHDA model in rats, pentobarbital sodium (80 mg/kg) was used as anesthesia by i.p. injection. Then, the rats were fixed in a stereotaxic frame (Benchmark, myNeuroLab, S-072607). 6-OHDA was dissolved in 0.2% ascorbic acid saline solution at 2.5 μg/μ1. […] Two weeks, three weeks, four weeks or five weeks later, apomorphine-induced rotational behavior was assessed to select the rats that had been successfully targeted. […]"}
{"smiles": "COc1cc2nc(N3CCN(C(=O)C4CCCO4)CC3)nc(N)c2cc1OC", "note": "(stereo not shown) [TZ, terazosin]", "values": [{"measurement": "forepaw use in cylinder test", "setting": "7 weeks after 6-OHDA, TZ between weeks 5 and 7", "result": "used both forepaws equally"}, {"measurement": "TH levels in striatum and SNc, TH-positive cells in SNc, TH immunostaining in striatum", "setting": "TZ 70 μg/kg i.p. daily for 2 weeks after 6-OHDA", "result": "partially reverted"}, {"measurement": "SNc cell apoptosis (TUNEL-positive cells)", "setting": "TZ 70 μg/kg i.p. daily for 2 weeks, begun 2-5 weeks after 6-OHDA", "result": "attenuated further cell loss"}, {"measurement": "dopamine, DOPAC, and HVA content", "setting": "right vs left striatum, TZ 70 μg/kg i.p.", "result": "partially prevented the reduction"}]}
